Measured values as given in patent publication US20240099989A1, “AGENT FOR PREVENTING OR IMPROVING PERIPHERAL NEUROPATHY” (KINKI UNIVERSITY, priority 2021, published 2024).
Where two headings read alike, the source gives them in different places.

What was measured:
[1] = test system: Peripheral Neuropathy in a Mouse Caused by Paclitaxel; assay type: in vivo, Balb/c mice
Description: (§1) Six to seven-week-old female Balb/c mice were used for the tests as with Example 1. All the mice were acclimated for seven days after arrival. Then, the mice were grouped into the following four groups: a control group, a group receiving paclitaxel, a group receiving xylitol, and a group receiving paclitaxel and xylitol (a group receiving paclitaxel+xylitol). Each group consisted of five mice.
On Day 8 of acclimation, the mice in the group receiving paclitaxel and the group receiving paclitaxel+xylitol were intraperitoneally administered with paclitaxel at a dose of 6 mg/kg. This day was designated as the first day of the administration (Day 0). Thereafter, these mice were intraperitoneally administered with paclitaxel at the same dose on Day 7 and Day 14 for a total of 3 doses.
The mice in the group receiving 100 mg/kg xylitol were orally administered with xylitol at a dose of 100 mg/kg daily from Day 0. The mice in the group receiving paclitaxel+100 mg/kg xylitol were orally administered with xylitol at a dose of 100 mg/kg daily from Day 6 of administration.
A test was performed on the mice in the four groups described in (6) of the present example (Example 2) to examine the effect of xylitol on paresthesia that is caused by a low temperature stimulus. The mice in respective groups were placed on a cold plate set at 10° C., and withdrawal response time (latent time) was measured. It is presumed that a shorter latent time reflects a greater degree of shunning the low temperature stimulus by the cold plate. […]
The mice in the group receiving 100 mg/kg D-threitol were orally administered with D-threitol at a dose of 100 mg/kg daily from Day 0. The mice in the group receiving paclitaxel+100 mg/kg D-threitol were orally administered with D-threitol at a dose of 100 mg/kg daily from Day 6 of administration.
A test was performed on the mice in the four groups described in (4) of the present example (Example 4) to examine the effect of D-threitol on paresthesia that is caused by a low temperature stimulus. The mice in respective groups were placed on a cold plate set at 10° C., and withdrawal response time (latent time) was measured. It is presumed that a shorter latent time reflects a greater degree of shunning the low temperature stimulus by the cold plate.
as §1, with “L-talitol,” for “xylitol,”, “L-talitol” for “xylitol”, “paclitaxel+L-talitol).” for “paclitaxel+xylitol).”
(§2) On Day 8 of acclimation, the mice in the group receiving paclitaxel and the group receiving paclitaxel+L-talitol were intraperitoneally administered with paclitaxel at a dose of 6 mg/kg. This day was designated as Day 0 of administration. Thereafter, these mice were intraperitoneally administered with paclitaxel at a daily dose of 6 mg/kg on Day 7 and Day 14.
The mice in the group receiving L-talitol and the group receiving paclitaxel+L-talitol were orally administered with L-talitol at a dose of 5 mg/kg daily from Day 0.
A cold plate test was performed to examine the effect of L-talitol on paresthesia that is caused by a low temperature stimulus. The mice in the four groups described in (4) of the present example (Example 5) were placed on a cold plate set at 10° C., and withdrawal response time (latent time) was measured. It is presumed that a shorter latent time reflects a greater degree of shunning the low temperature stimulus by the cold plate.
On Day 8 of acclimation, the mice in the group receiving paclitaxel and the group receiving paclitaxel+L-talitol were intraperitoneally administered with paclitaxel at a dose of 6 mg/kg. This day was designated as the first day of the administration (Day 0). […]

[2] = test system: Peripheral Neuropathy in a Mouse Caused by Bortezomib; assay type: in vivo, Balb/c mice; conditions: 1 mg/kg bortezomib + 100 mg/kg orally daily from Day 6 (therapy); from Day 12 onwards
Description: as §1, with “tests.” for “tests as with Example 1.”, “bortezomib,” for “paclitaxel,”, “bortezomib” for “paclitaxel”, “bortezomib+xylitol).” for “paclitaxel+xylitol).”
as §2, with “bortezomib” for “paclitaxel”, “bortezomib+xylitol” for “paclitaxel+L-talitol”, “1” for “6”
The mice in the group receiving xylitol and the group receiving bortezomib+xylitol were orally administered with xylitol at a dose of 5 mg/kg daily from Day 0.
The mice in the four groups described in (10) of the present example (Example 1) were placed in a cage, and the avoidance response frequency (score) was measured by pressing a filament with a bending force of 0.16 g against the back of the hind paw.
as §1, with “bortezomib,” for “paclitaxel,”, “bortezomib” for “paclitaxel”, “bortezomib+xylitol).” for “paclitaxel+xylitol).”, “mice. […]” for “mice.”
For the mice in the four groups described in (12) of the present example (Example 2), the avoidance response frequency (score) was measured by pressing a filament with a bending force of 0.16 g against the back of the hind paw. […]
The mice in the four groups described in (10) of the present example (Example 3) were placed in a cage, and the avoidance response frequency (score) was measured by pressing a filament with a bending force of 0.16 g against the back of the hind paw. […]

[3] = 6 mg/kg paclitaxel + 5 mg/kg test substance orally daily from Day 0 (prevention)
[4] = 6 mg/kg paclitaxel + 100 mg/kg orally daily from Day 6, on Day 12, vs group receiving 6 mg/kg paclitaxel

With `OC[C@@H](O)[C@H](O)CO` [D-threitol] the “withdrawal response time (latent time)” value [1, 3] was “approximately similar to that of the control group”, the “withdrawal response time (latent time)” value [1, 4] was “significantly longer withdrawal response time” and the avoidance response score [2] was “maintained a score clearly lower than that of the group receiving bortezomib”.

For `OC[C@H](O)[C@H](O)[C@H](O)[C@@H](O)CO` [L-talitol], the “withdrawal response time (latent time)” value [1, 3] was “approximately similar to that of the control group”, the “withdrawal response time (latent time)” value [1, 4] was “significantly longer withdrawal response time” and the avoidance response score [2] was “maintained a score clearly lower than that of the group receiving bortezomib”.

In the case of `OC[C@@H](O)[C@H](O)[C@@H](O)CO` [xylitol], the “withdrawal response time (latent time)” value [1, 3] was “approximately similar to that of the control group”, the “withdrawal response time (latent time)” value [1, 4] was “significantly longer withdrawal response time” and the avoidance response score [2] was “maintained a score clearly lower than that of the group receiving bortezomib”.
